Assay results: US8759519B2, “Mono-hydrochloric salts of an inhibitor of histone deacetylase” (Janssen Pharmaceutica NV, priority 2007, dated 2014)
Counter-ions that a name gives are not always drawn.

Experiments:
Type in all cases: physicochemical
[1] = Adsorption/desorption of water (dynamic vapor sorption)
Protocol: The ADS/DES data were obtained using a SMS dynamic vapor sorption model DVS-1 and the weight change was recorded with tespect to the atmospheric humidity at 25° C. The weight of the samples was about 17 mg of Form I and 24 mg of Form II. The samples were dried for 60 min under dry nitrogen. The equilibrium was lower or equal to 0.01%/min. for minimal 15 min and maximal 60 min. The data interval was 0.05% or 2.0 min.
Relative Humidity (%) measurement points were:
The adsorption and desorption of water at 25° C. at different conditions of relative humidity was investigated on 17 mg Form I.
The weight change as a function of relative humidity was registered.
The adsorption and desorption of water at 25° C. at different conditions of relative humidity was investigated on about 24 mg Form II

[2] = Crystallographic stability after storage in open conditions (TGA, DSC, XRPD, IR); set-up: key to XRD / IR: ~Ref: identical with reference; Cryst.: crystalline; conditions: for IR / XRD: Table G
Protocol: The stability of the crystal structure of Form I was studied after storage of the compound in open conditions for a period of six weeks at room temperature (RT) under <5%, 56% and 75% relative humidity (RH), 50° C. and 40° C./75% RH.
The samples are analyzed with thermogravimetry (TGA), differential scanning calorimetry (DSC), X-ray powder diffraction (XRPD) and infrared spectroscopy (IR).
The stability of the crystal structure of Form II was studied after storage of the compound in open conditions for a period of six weeks at room temperature (RT) under <5%, 56% and 75% relative humidity (RH), 50° C. and 40° C./75% RH.
The samples were analyzed with thermogravimetry (TGA), differential scanning calorimetry (DSC), X-ray powder diffraction (XRPD) and infrared spectroscopy (IR).

[3] = Chemical stability after storage in open conditions (HPLC, visual inspection); conditions: for HPLC Sum of impurities / Appearance: hydrochloride
Protocol: Form I was stored in different open conditions for periods of 1, 4 and 8 weeks.
These conditions are 40° C./75% RH, 50° C., RT/<5% RH, RT/56% RH, RT/75% RH and 0.3 da ICH light.
The compounds were analyzed after storage by HPLC and by visual inspection.
Form II was stored in different open conditions for periods of 1, 4 and 8 weeks. These conditions were 40° C./75% RH, 50° C., RT/<5% RH, RT/56% RH, RT/75% RH and 0.3 da ICH light.

[4] = 0 days (reference), hydrochloride
[5] = extra endothermic signal, six weeks open, 40° C./75% RH
[6] = extra endothermic signal, six weeks open, 50° C.
[7] = extra endothermic signal, six weeks open, RT/56% RH
[8] = extra endothermic signal, six weeks open, RT/75% RH
[9] = extra endothermic signal, six weeks open, RT/<5% RH
[10] = six weeks open, 40° C./75% RH, hydrochloride
[11] = six weeks open, 50° C., hydrochloride
[12] = six weeks open, RT/<5% RH, hydrochloride

drying during the desorption cycle ([1]; 25° C.): dries completely
hygroscopic behavior ([1]; 25° C., adsorption/desorption test, hydrochloride): hygroscopic
water adsorbed at high relative humidity ([1]; 25° C., high relative humidity, hydrochloride): up to 9.6%
crystallinity during the adsorption/desorption test ([1]; 25° C., hydrochloride): remains crystalline
weight loss during the initial drying step ([1]; dried under dry nitrogen): 1.67%
DSC Max (° C.) ([2]; 0 days (reference)): ±198 °C
TGA <170° C. ([2]; 0 days (reference)): 0.4%
App (appearance) [2, 4]: white
TGA <100° C. [2, 4]: 3.3%
IR ([2]; six weeks open, 40° C./75% RH): ≠Ref
XRD ([2]; six weeks open, 40° C./75% RH): ≠Ref
IR ([2]; six weeks open, 50° C.): ~Ref
XRD ([2]; six weeks open, 50° C.): ~Ref
IR ([2]; six weeks open, RT/56% RH): ≠Ref
XRD ([2]; six weeks open, RT/56% RH): ≠Ref
IR ([2]; six weeks open, RT/75% RH): ≠Ref
XRD ([2]; six weeks open, RT/75% RH): ≠Ref
IR ([2]; six weeks open, RT/<5% RH): ~Ref
XRD ([2]; six weeks open, RT/<5% RH): ~Ref
DSC Extra (° C.) ([2]; extra endothermic signal (solvent evaporation), 0 days (reference)): 71.5 °C
DSC Extra, heat of the signal ([2]; extra endothermic signal, 0 days (reference)): (78 J/g)
DSC Extra (° C.) [2, 5]: 83.9 °C
DSC Extra, heat of the signal [2, 5]: (151 J/g)
DSC Extra (° C.) [2, 6]: 74.6 °C
DSC Extra, heat of the signal [2, 6]: (66 J/g)
DSC Extra (° C.) [2, 7]: 87.1 °C
DSC Extra, heat of the signal [2, 7]: (144 J/g)
DSC Extra (° C.) [2, 8]: 85.2 °C
DSC Extra, heat of the signal [2, 8]: (153 J/g)
DSC Extra (° C.) [2, 9]: 75.1 °C
DSC Extra, heat of the signal [2, 9]: (68 J/g)
crystallographic stability (conclusion) ([2]; six weeks open storage under the different conditions, hydrochloride): crystallographically not stable
DSC Max (° C.) ([2]; six weeks open, 40° C./75% RH): ±198 °C
TGA <170° C. ([2]; six weeks open, 40° C./75% RH): 0.2%
App (appearance) [2, 10]: pink
TGA <100° C. [2, 10]: 6%
DSC Max (° C.) ([2]; six weeks open, 50° C.): ±198 °C
TGA <170° C. ([2]; six weeks open, 50° C.): 0.2%
App (appearance) [2, 11]: white
TGA <100° C. [2, 11]: 2.1%
DSC Max (° C.) ([2]; six weeks open, RT/56% RH): ±198 °C
TGA <170° C. ([2]; six weeks open, RT/56% RH): 0.3%
TGA <100° C. ([2]; six weeks open, RT/56% RH, hydrochloride): 5.2%
DSC Max (° C.) ([2]; six weeks open, RT/75% RH): ±198 °C
TGA <170° C. ([2]; six weeks open, RT/75% RH): 0.3%
TGA <100° C. ([2]; six weeks open, RT/75% RH, hydrochloride): 4.9%
DSC Max (° C.) ([2]; six weeks open, RT/<5% RH): ±198 °C
TGA <170° C. ([2]; six weeks open, RT/<5% RH): 0.4%
App (appearance) [2, 12]: white
TGA <100° C. [2, 12]: 1.9%
HPLC Sum of impurities ([3]; 0.3 da ICH light (1 week)): 7.42%
HPLC Sum of impurities ([3]; 40° C./75% RH, 1 week): 4.96%
Appearance ([3]; 40° C./75% RH, 4 weeks): pink
HPLC Sum of impurities ([3]; 40° C./75% RH, 4 weeks): 4.99%
Appearance ([3]; 40° C./75% RH, 8 weeks): pink
HPLC Sum of impurities ([3]; 40° C./75% RH, 8 weeks): 4.9%
Appearance ([3]; 50° C., 1 week): white
HPLC Sum of impurities ([3]; 50° C., 1 week): 4.96%
Appearance ([3]; 50° C., 4 weeks): white
HPLC Sum of impurities ([3]; 50° C., 4 weeks): 5%
HPLC Sum of impurities ([3]; 50° C., 8 weeks): 4.9%
HPLC Sum of impurities ([3]; RT/56% RH, 4 weeks): 5.05%
HPLC Sum of impurities ([3]; RT/56% RH, 8 weeks): 4.94%
HPLC Sum of impurities ([3]; RT/75% RH, 4 weeks): 5.03%
HPLC Sum of impurities ([3]; RT/75% RH, 8 weeks): 4.97%
Appearance ([3]; RT/<5% RH, 4 weeks): white
HPLC Sum of impurities ([3]; RT/<5% RH, 4 weeks): 5.1%
Appearance ([3]; RT/<5% RH, 8 weeks): white
HPLC Sum of impurities ([3]; RT/<5% RH, 8 weeks): 4.98%
Appearance ([3]; Reference (1 week)): white
HPLC Sum of impurities ([3]; Reference (1 week)): 5.04%
discoloration ([3]; after storage in 0.3 da ICH light): white to or orange-brown
discoloration ([3]; after storage in humid conditions RT/56% RH, RT/75% RH and 40° C./75% RH and elevated temperature 50° C.): white to pink
sensitivity towards light (sum of impurities) ([3]; storage in 0.3 da ICH light conditions): showed a sensitivity towards light
Structure (SMILES): Cn1cc(CNCC2CCN(c3ncc(C(=O)NO)cn3)CC2)c2ccccc21 [Form II, N-hydroxy-2-[4-[[[(1-methyl-1H-indol-3-yl)methyl]amino]methyl]-1-piperidinyl]-5-pyrimidinecarboxamide hydrochloride]
